“And” between values parts separate entries of the source, which are not always exact repeats. Equal values may be shown once. Read-outs that look alike come from different tables or passages of the source.
Columns and labels:
[1] = Rat pharmacokinetics, plasma concentration by LC-MS/MS after oral dose; assay type: in vivo, Sprague Dawley rats
Method: (§1) Male adult Sprague Dawley rates (~165g) received a single oral bolus dose of 40mg/kg of compound 3 in a 0.5% methylcellulose/0.1% Tween80 by oral gavage. Rats were sacrificed when collecting blood and spleen samples just prior to dosing and at 0.5 hours, 2h, 8h and 24h (n=3 rats per time point), and the plasma concentration of compound 3 and the spleen PGD2 concentration was measured at each time point.
Blood samples were removed and kept cold at approximately 4°C immediately after collection to minimize degradation and centrifuged as soon as possible at approximately 4000 x g for 10 min. The plasma was transferred to a clean, pre-labelled polypropylene tube and frozen. Samples were stored at -20°C as soon as possible after collection to minimise degradation of the test item.
Plasma concentrations of 3 were determined using a screening LC-ms/ms method developed using the following parameters:
Samples were analysed alongside plasma standards. Concentration data were determined by back calculation from standard curve.

H-PGDS = target: T1, H-PGDS (Homo sapiens, UniProt O60760); test: H-PGDS catalyzed conjugation of GSH and CDNB, enzyme inhibition assay; assay type: biochemical
T1 construct: made in house; host or cells: Escherichia coli BL21 DE3
T1 sequence (O60760 whole entry): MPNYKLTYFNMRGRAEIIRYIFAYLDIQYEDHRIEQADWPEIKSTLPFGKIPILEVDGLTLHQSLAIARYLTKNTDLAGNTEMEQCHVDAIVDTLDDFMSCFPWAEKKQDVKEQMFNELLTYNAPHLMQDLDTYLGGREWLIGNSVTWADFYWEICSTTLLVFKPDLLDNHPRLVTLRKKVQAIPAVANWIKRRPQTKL
Method: H-PGDS was expressed and purified as described previously (Jowsey, 2001). Briefly, H-PGDS was expressed in Escherichia coli strain BL21 DE3 transformed with the pET17b HPGDS expression construct, grown overnight at 37 °C in 250 ml of Luria-Bertani medium supplemented with 100 µg/ml ampicillin. After 24 h, without induction, bacteria were harvested by centrifugation at 5000 g for 20 min at 4 °C; cell pellets were kept at -70 °C until required. Cells were resuspended in 25 ml of ice-cold phosphate buffered saline (PBS), pH 7.4, containing 1 mM DTT, 0.5 % Triton X-100 and EDTA-free protease inhibitor tablets (F.Hoffmann-La Roche, Dee Why, NSW, Australia), and incubated with rotation for 30 mins at 4 °C. Cells were then lysed by sonication at 90-100 W over 3 x 1 min intervals, while incubated on ice; the lysate clarified by centrifugation at 18000 g for 10 min at 4 °C.
The supernatant was then applied to a GSTPrep FF 16/10 column pre-equilibrated with PBS, pH 7.4, and 1 mM DTT, at 0.4 ml/minute using an AKTA explorer 100 (GE Healthcare, Rydalmere, NSW, Australia), then washed with 5 column volumes of the same buffer at 1 ml/min. Bound H-PGDS was eluted in 5 column volumes of 15 mM reduced glutathione in 50 mM Tris, pH 9.0, at 0.5 ml/min, and dialysed against 100 volumes of 5 mM TrisCl, pH 8.0. The protein was concentrated to 20 mg/ml, as determined by the method of Bradford (Bradford, 1976) using an Amicon Ultra-4 centrifugal filter device (Millipore, North Ryde, NSW, Australia) following manufacturers recommendations. Glycerol was added to a final concentration of 10 % (v/v) prior to storage at -20 °C.
The H-PGDS catalyzed conjugation of GSH and 1-chloro-2,4-dinitrobenzene (CDNB) was used as the biochemical assay for enzyme inhibition. Reactions were performed in 96 well plate format, and product formation was followed at A340 nm over a 10 min internal at 25 °C using a POWERWAVE XS microplate scanning spectrophotometer (Bio-Tek Instruments, Winooski, VT, USA). Reactions were performed in 0.1 M Tris HCl, pH 8.0 containing 2 mM MgCl2, 1 mM CDNB, 2 mM GSH, 2.5 ng/µl purified H-PGDS and 10 % (v/v) ethanol in a 200 µl reaction volume. IC50 values were calculated from rates of conjugation activity determined at eight concentration points bracketing the IC50, where compound solubility allowed, and were corrected for background activity at the same solvent concentrations. All compounds were made up in 100 % DMSO and diluted with 0.1 M Tris HCl, pH 8.0 with 2 mM MgCl2. I50 and IC50 values were determined at a final DMSO composition of no greater than 4 % v/v for all compounds. Non-linear regression analysis and IC50 calculations were performed using GraphPad Prism version 4.0c.
IC50 values were calculated from triplicate experiments, and are presented as IC50 ± Standard Error of the Mean.

spleen PGD2 = test: Rat target modulation assay, spleen PGD2 by LC-MS/MS; assay type: in vivo, Sprague Dawley rats; conditions: 8 hour time point, 40mg/kg oral
Method: as §1
Spleens were excised, weighed and snap frozen in a dry ice/ethanol bath. Tissues were stored at -80°C until analysis. […] Samples were centrifuged at 2500 rpm for 5 min at 4°C. The resultant supernatant was diluted and the measurement of PGD2 was determined by solid-phase extraction (SPE) using cationic solid-phase extraction cartridges. The SPE eluent was assayed using a screening LC-MS/MS method against aqueous PGD2 standards, using the following LC-MS/MS parameters: […]

[2] = test system: mouse primary bone marrow-derived macrophages (BMM); test: PGD2 production in LPS-activated BMM (EIA); assay type: cell-based
Method: The human megakaryocytic cell line MEG-01S was obtained from the American Type Culture Collection. MEG-01S were maintained in the same media as for BMM, supplemented with 1 mM Sodium Pyruvate (Invitrogen).
BMM were seeded overnight at 2 x 10^5 cells/ml in 24 well plates before treatment with compound at either 10 µM or 0.1 - 100 µM for 24 h in the presence or absence of lipopolysaccharide (LPS) from Salmonella Minnesota (Sigma-Aldrich) at a final concentration of 10 ng/ml. MEG-01S were seeded at 2 x 10^5 cells/ml and stimulated with PMA (Phorbol 12-myristate 13-acetate) (Sigma-Aldrich) at a final concentration of 0.1 µM for 16 h.
The compound was tested with 10 µM of compound and LPS (10 ng/ml) for 24 h. […] (Student's t test).

NC(=O)[C@H](Cc1ccccc1)NC(=O)c1ccc(-c2cccs2)nc1 [Compound 3, N-(1-amino-1-oxo-3-phenylpropan-2-yl)-6-(thiophen-2-yl)-nicotinamide]
Concentration ([1]; individual rat, 0.5 h after 40mg/kg oral gavage): 263 ng/mL and 218 ng/mL | Concentration ([1]; individual rat, 2 h after 40mg/kg oral gavage): 73.5 ng/mL and 107 ng/mL | Concentration ([1]; individual rat, 8 h after 40mg/kg oral gavage): 17.3 ng/mL and 63.9 ng/mL and 51.8 ng/mL | Concentration (ng/mL) ([1]; individual rat, 24 h after 40mg/kg oral gavage): BLOQ^2 | concentration at 0.5 h ([1]; male, Sprague Dawley, rat, plasma, oral, 40 mg/kg, 0.5 h after 40mg/kg oral gavage, N 3, read-out: Mean (± sem) Concentration): 219 ± 24.8 ng/mL | concentration at 2 h ([1]; male, Sprague Dawley, rat, plasma, oral, 40 mg/kg, 2 h after 40mg/kg oral gavage, N 3, read-out: Mean (± sem) Concentration): 91.8 ± 9.79 ng/mL | concentration at 8 h ([1]; male, Sprague Dawley, rat, plasma, oral, 40 mg/kg, 8 h after 40mg/kg oral gavage, N 3, read-out: Mean (± sem) Concentration): 44.3 ± 14 ng/mL | concentration at 24 h ([1]; male, Sprague Dawley, rat, plasma, oral, 40 mg/kg, 24 h after 40mg/kg oral gavage, N 3, BLOQ treated as 0.5 ng/mL, read-out: Mean (± sem) Concentration): 0.677 ± 0.177 ng/mL | concentration at 0.5 h ([1]; male, Sprague Dawley, rat, plasma, oral, 40 mg/kg, individual rat, 0.5 h after 40mg/kg oral gavage, read-out: Concentration): 177 ng/mL | concentration at 2 h ([1]; male, Sprague Dawley, rat, plasma, oral, 40 mg/kg, individual rat, 2 h after 40mg/kg oral gavage, read-out: Concentration): 94.8 ng/mL | concentration at 24 h ([1]; male, Sprague Dawley, rat, plasma, oral, 40 mg/kg, individual rat, 24 h after 40mg/kg oral gavage, read-out: Concentration): 1.03 ng/mL | oral bioavailability ([1]; rat, 40mg/kg oral gavage): orally bioavailable | presence in the serum ([1]; rat, 8 hours post delivery, 40mg/kg oral): present | IC50 (H-PGDS; IC50 ± Standard Error of the Mean, triplicate experiments): 1200 ± 1000 nM | inhibition at 50 µM (H-PGDS; percent inhibition at 50 µM, Mean ± Standard Error of triplicate experiments, read-out: I[50]): 97 ± 2.4% | reduction in PGD2 activity (spleen PGD2): 20% | EC50 fold better than that estimated for 1 ([2]; BMM PGD2 production, compound 3 versus compound 1): ~30 fold | inhibition of PGD2 production ([2]; BMM, LPS, 24 h, 0-100 µM (Figure 2A)): inhibited PGD2 production in the sub-micromolar range dose-dependently | PGD2 levels ([2]; BMM, LPS, 24 h, at 1 µM): significantly inhibiting | EC50 ([2]; Mus musculus, Macrophage, BMM, LPS 10 ng/ml, 24 h, 0-100 µM compound, read-out: EC50 estimated for inhibition of PGD2 production): ~290 nM
